Molecular target: human KDR protein in HEK-293 cells (Homo sapiens (Human), UniProt P35968)
Test: KDR Cell Assay (phospho-KDR in HEK-293 cells expressing inducible KDR)
Type: cell-based
Settings: pKDR Cell HEK 10% FBS IC50, HEK-293 cells expressing inducible KDR, VEGF stimulated
Method in brief: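 HEK-293 cells with inducible human KDR were treated with compound for 1 h in DMEM (0.25% DMSO final), then lysed. Phospho-KDR was quantified by Meso Scale immunoassay, expressed as percent of control, and IC50 taken where a 4-parameter logistic fit crossed 50 POC.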

human KDR protein in HEK-293 cells, sequence (P35968 20-1356): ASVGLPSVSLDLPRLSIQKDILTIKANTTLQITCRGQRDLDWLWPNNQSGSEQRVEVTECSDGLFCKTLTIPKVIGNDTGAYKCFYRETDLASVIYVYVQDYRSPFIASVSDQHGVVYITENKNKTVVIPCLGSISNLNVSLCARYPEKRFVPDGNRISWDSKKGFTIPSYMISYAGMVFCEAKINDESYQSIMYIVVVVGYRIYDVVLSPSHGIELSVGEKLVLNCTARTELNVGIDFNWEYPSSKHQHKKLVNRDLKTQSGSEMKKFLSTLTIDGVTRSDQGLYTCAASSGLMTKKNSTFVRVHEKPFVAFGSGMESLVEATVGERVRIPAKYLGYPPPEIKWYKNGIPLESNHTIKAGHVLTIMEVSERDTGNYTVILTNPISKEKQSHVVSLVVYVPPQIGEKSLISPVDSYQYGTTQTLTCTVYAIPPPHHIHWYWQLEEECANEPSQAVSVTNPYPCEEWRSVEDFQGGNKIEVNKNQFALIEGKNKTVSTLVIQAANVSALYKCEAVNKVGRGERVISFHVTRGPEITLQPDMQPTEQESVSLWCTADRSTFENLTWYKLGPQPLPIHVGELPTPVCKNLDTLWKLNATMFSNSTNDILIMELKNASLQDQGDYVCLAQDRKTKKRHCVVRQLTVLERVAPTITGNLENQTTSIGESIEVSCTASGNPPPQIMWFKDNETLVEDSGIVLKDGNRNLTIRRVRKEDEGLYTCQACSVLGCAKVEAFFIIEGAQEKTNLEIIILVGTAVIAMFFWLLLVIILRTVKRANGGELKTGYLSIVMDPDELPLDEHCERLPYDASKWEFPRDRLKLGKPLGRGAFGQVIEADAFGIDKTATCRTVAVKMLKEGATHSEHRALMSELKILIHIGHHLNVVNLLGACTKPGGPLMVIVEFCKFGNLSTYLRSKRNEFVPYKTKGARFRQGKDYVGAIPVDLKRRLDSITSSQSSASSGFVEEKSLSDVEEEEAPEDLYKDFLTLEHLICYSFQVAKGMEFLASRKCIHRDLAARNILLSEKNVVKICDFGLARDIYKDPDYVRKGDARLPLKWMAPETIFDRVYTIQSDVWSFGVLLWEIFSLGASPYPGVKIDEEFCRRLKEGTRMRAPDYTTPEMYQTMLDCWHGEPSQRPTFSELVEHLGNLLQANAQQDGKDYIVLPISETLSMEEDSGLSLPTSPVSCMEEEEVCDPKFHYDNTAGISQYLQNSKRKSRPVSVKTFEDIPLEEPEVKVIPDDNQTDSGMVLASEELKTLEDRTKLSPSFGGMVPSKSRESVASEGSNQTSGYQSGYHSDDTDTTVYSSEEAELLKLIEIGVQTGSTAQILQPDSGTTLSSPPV

SMILES | IC50 (10% FBS) [nM] | IC50 [nM]
Cn1cc(-c2cc(-c3ccc(N4CCN(C(=O)C5(c6cccnc6)CC5)CC4)nc3)c3c(C#N)cnn3c2)cn1 [Example 369, 6-(1-methyl-1H-pyrazol-4-yl)-4-(6-(4-(1-(pyridine-3-yl)cyclopropane-1-carbonyl)piperazin-1-yl)pyridin-3-yl)pyrazolo[1,5-a]pyridine-3-carbonitrile bis(2,2,2-trifluoroacetate)] | 1270 | 
CO[C@H](C(=O)N1CCN(c2ccc(-c3cc(-c4cnn(C)c4)cn4ncc(C#N)c34)cn2)CC1)c1ccccc1 [Example 84] | 1260 | 
CN(C(=O)N1CCN(c2ccc(-c3cc(-c4cnn(C)c4)cn4ncc(C#N)c34)cn2)CC1)c1ccccc1 [Example 109, 4-(5-(3-cyano-6-(1-methyl-1H-pyrazol-4-yl)pyrazolo[1,5-a]pyridin-4-yl)pyridin-2-yl)-N-methyl-N-phenylpiperazine-1-carboxamide] | 360 | 
COc1ccccc1N(C)C(=O)N1CCN(c2ccc(-c3cc(-c4cnn(C)c4)cn4ncc(C#N)c34)cn2)CC1 [Example 382, 4-(5-(3-cyano-6-(1-methyl-1H-pyrazol-4-yl)pyrazolo[1,5-a]pyridin-4-yl)pyridine-2-yl)-N-(2-methoxyphenyl)-N-methylpiperazine-1-carboxamide] |  | 1710
Cn1cc(-c2cc(-c3ccc(N4CCC5(CCCN(C(=O)OC(C)(C)C)C5)C4)nc3)c3c(C#N)cnn3c2)cn1 (stereo not drawn) [Example 518, tert-butyl 2-(5-(3-cyano-6-(1-methyl-1H-pyrazol-4-yl)pyrazolo[1,5-a]pyridin-4-yl)pyridin-2-yl)-2,7-diazaspiro[4.5]decane-7-carboxylate] |  | 4630
Cc1nccc(CN2CCN(c3ccc(-c4cc(-c5cnn(C)c5)cn5ncc(C#N)c45)cn3)CC2)n1 [Example 467, 6-(1-methyl-1H-pyrazol-4-yl)-4-(6-(4-((2-methylpyrimidin-4-yl)methyl)piperazin-l-yl)pyridin-3-yl)pyrazolo[1,5-a]pyridine-3-carbonitrile] |  | 1540
Cn1cc(-c2cc(-c3ccc(N4CCC(NC(=O)c5ccccc5)CC4)nc3)c3c(C#N)cnn3c2)cn1 [Example 184, N-(1-(5-(3-cyano-6-(1-methyl-1H-pyrazol-4-yl)pyrazolo[1,5-a]pyridin-4-yl)pyridin-2-yl)piperidin-4-yl)benzamide] | 75.2 | 
Cn1cc(-c2cc(-c3ccc(N4CC5(CCOCC5)C4)nc3)c3c(C#N)cnn3c2)cn1 [Example 527, 4-(6-(7-oxa-2-azaspiro[3.5]nonan-2-yl)pyridin-3-yl)-6-(1-methyl-1H-pyrazol-4-yl)pyrazolo[1,5-a]pyridine-3-carbonitrile 2,2,2-trifluoroacetate] |  | 918
Cn1cc(-c2cc(-c3ccc(N4CCN(C(=O)Cc5ccc(F)cn5)CC4)nc3)c3c(C#N)cnn3c2)cn1 [Example 360, 4-(6-(4-(2-(5-fluoropyridin-2-yl)acetyl)piperazin-1-yl)pyridin-3-yl)-6-(1-methyl-1H-pyrazol-4-yl)pyrazolo[1,5-a]pyridine-3-carbonitrile bis(2,2,2-trifluoroacetate)] | 385 | 
Cn1cc(-c2cc(-c3ccc(N4CCC(Oc5ccccc5)CC4)nc3)c3c(C#N)cnn3c2)cn1 [Example 508] |  | 2.9
CC(C)n1cc(CN2CCN(c3ccc(-c4cc(-c5cnn(C)c5)cn5ncc(C#N)c45)cn3)CC2)cn1 [Example 445, 4-(6-(4-((1-isopropyl-1H-pyrazol-4-yl)methyl)piperazin-1-yl)pyridin-3-yl)-6-(1-methyl-1H-pyrazol-4-yl)pyrazolo[1,5-a]pyridine-3-carbonitrile] |  | 1660
Cn1cc(-c2cc(-c3ccc(N4CCN(C(=O)CN5CCOCC5)CC4)nc3)c3c(C#N)cnn3c2)cn1 [Example 362, 6-(1-methyl-1H-pyrazol-4-yl)-4-(6-(4-(2-morpholinoacetyl)piperazin-1-yl)pyridin-3-yl)pyrazolo[1,5-a]pyridine-3-carbonitrile bis(2,2,2-trifluoroacetate)] | 1860 | 
CN(C)c1ccccc1CN1CCN(c2ccc(-c3cc(-c4cnn(C)c4)cn4ncc(C#N)c34)cn2)CC1 [Example 460, 4-(6-(4-(2-(dimethylamino)benzyl)piperazin-1-yl)pyridin-3-yl)-6-(1-methyl-1H-pyrazol-4-yl)pyrazolo[1,5-a]pyridine-3-carbonitrile] |  | 1780
Cn1cc(-c2cc(-c3ccc(N4CCN(Cc5ccccc5Cl)CC4)nc3)c3c(C#N)cnn3c2)cn1 [Example 454, 4-(6-(4-(2-chlorobenzyl)piperazin-1-yl)pyridin-3-yl)-6-(1-methyl-1H-pyrazol-4-yl)pyrazolo[1,5-a]pyridine-3-carbonitrile] |  | 698
Cn1cc(-c2cc(-c3ccc(N4CCN(Cc5cccnc5)CC4)nc3)c3c(C#N)cnn3c2)cn1 [Example 471, 6-(1-methyl-1H-pyrazol-4-yl)-4-(6-(4-(pyridin-3-ylmethyl)piperazin-1-yl)pyridine-3-yl)pyrazolo[1,5-a]pyridine-3-carbonitrile] |  | 1580
Cn1cc(-c2cc(-c3ccc(N4[C@@H]5CC[C@H]4C[C@@H](O)C5)nc3)c3c(C#N)cnn3c2)cn1 [Example 199, 4-(6-((1R,3r,5S)-3-hydroxy-8-azabicyclo[3.2.1]octan-8-yl)pyridin-3-yl)-6-(1-methyl-1H-pyrazol-4-yl)pyrazolo[1,5-a]pyridine-3-carbonitrile] | 565 | 
Cn1cc(-c2cc(-c3ccc(N4CCN(S(C)(=O)=O)CC4)cc3)c3c(C#N)cnn3c2)cn1 [Example 297, 6-(1-methyl-1H-pyrazol-4-yl)-4-(4-(4-(methylsulfonyl)piperazin-1-yl)phenyl)pyrazolo[1,5-a]pyridine-3-carbonitrile] | 189 | 
Cn1cc(-c2cc(-c3ccc(N4CCN(C(=O)c5ccccc5N5CCOCC5)CC4)nc3)c3c(C#N)cnn3c2)cn1 [Example 358, 6-(1-methyl-1H-pyrazol-4-yl)-4-(6-(4-(2-morpholinobenzoyl)piperazin-1-yl)pyridin-3-yl)pyrazolo[1,5-a]pyridine-3-carbonitrile bis(2,2,2-trifluoroacetate)] | 161 | 
Cn1cc(-c2cc(-c3ccc(N4CCN(Cc5cncc(F)c5)CC4)nc3)c3c(C#N)cnn3c2)cn1 [Example 423, 4-(6-(4-((5-fluoropyridin-3-yl)methyl)piperazin-1-yl)pyridin-3-yl)-6-(1-methyl-1H-pyrazol-4-yl)pyrazolo[1,5-a]pyridine-3-carbonitrile] |  | 1370
Cn1cc(-c2cc(-c3ccc(N4CCC5(CCCN(C(=O)OC(C)(C)C)C5)CC4)nc3)c3c(C#N)cnn3c2)cn1 [Example 504, tert-Butyl 9-(5-(3-cyano-6-(1-methyl-1H-pyrazol-4-yl)pyrazolo[1,5-a]pyridin-4-yl)pyridine-2-yl)-2,9-diazaspiro[5.5]undecane-2-carboxylate] |  | 2070
Cn1cc(-c2cc(-c3ccc(N4CCC5(CCN(C(=O)OC(C)(C)C)CC5)CC4)nc3)c3c(C#N)cnn3c2)cn1 [Example 511, tert-butyl 9-(5-(3-cyano-6-(1-methyl-1H-pyrazol-4-yl)pyrazolo[1,5-a]pyridin-4-yl)pyridin-2-yl)-3,9-diazaspiro[5.5]undecane-3-carboxylate] |  | 1050

Second part, the molecule after the results:

IC50 (10% FBS) [nM] | IC50 [nM] | SMILES
 | 458 | Cn1cc(-c2cc(-c3ccc(N4CCC5(CC4)CN(C(=O)N4CCCC4)C5)nc3)c3c(C#N)cnn3c2)cn1 [Example 500, 6-(1-methyl-1H-pyrazol-4-yl)-4-(6-(2-(pyrrolidine-1-carbonyl)-2,7-diazaspiro[3.5]nonan-7-yl)pyridin-3-yl)pyrazolo[1,5-a]pyridine-3-carbonitrile]
328 |  | Cn1cc(-c2cc(-c3ccc(N4CCN(C(=O)[C@@H](O)Cc5ccccc5)CC4)nc3)c3c(C#N)cnn3c2)cn1 [Example 4]
1960 |  | CC(C)C(=O)N1CCC2(CCN(c3ccc(-c4cc(-c5cnn(C)c5)cn5ncc(C#N)c45)cn3)CC2)C1 [Example 207, 4-(6-(2-isobutyryl-2,8-diazaspiro[4.5]decan-8-yl)pyridin-3-yl)-6-(1-methyl-1H-pyrazol-4-yl)pyrazolo[1,5-a]pyridine-3-carbonitrile]
 | 453 | Cn1cc(-c2cc(-c3ccc(N4CCN(CC5CC5)CC4)nc3)c3c(C#N)cnn3c2)cn1 [Example 394, 4-(6-(4-(cyclopropylmethyl)piperazin-1-yl)pyridin-3-yl)-6-(1-methyl-1H-pyrazol-4-yl)pyrazolo[1,5-a]pyridine-3-carbonitrile]
1650 |  | Cn1cc(-c2cc(-c3ccc(N4CCN(C(=O)Cc5ccnn5C)CC4)nc3)c3c(C#N)cnn3c2)cn1 [Example 20, 6-(1-methyl-1H-pyrazol-4-yl)-4-(6-(4-(2-(1-methyl-1H-pyrazol-5-yl)acetyl)piperazin-1-yl)pyridin-3-yl)pyrazolo[1,5-a]pyridine-3-carbonitrile]
135 |  | CO[C@@H](C(=O)N1CCN(c2ccc(-c3cc(-c4cnn(C)c4)cn4ncc(C#N)c34)cn2)CC1)c1ccccc1 [Example 83]
1310 |  | COC[C@H]1CCCN1C(=O)N1CCN(c2ccc(-c3cc(-c4cnn(C)c4)cn4ncc(C#N)c34)cn2)CC1 [Example 110, (R)-4-(6-(4-(2-(methoxymethyl)pyrrolidine-1-carbonyl)piperazin-1-yl)pyridin-3-yl)-6-(1-methyl-1H-pyrazol-4-yl)pyrazolo[1,5-a]pyridine-3-carbonitrile]
720 |  | CC(=O)N1CCN(c2ccc(-c3cc(-c4cnn(C)c4)cn4ncc(C#N)c34)cc2)CC1 [Example 295, 4-(4-(4-acetylpiperazin-1-yl)phenyl)-6-(1-methyl-1H-pyrazol-4-yl)pyrazolo[1,5-a]pyridine-3-carbonitrile]
1610 |  | Cn1cc(-c2cc(-c3ccc(N4CCN(C(=O)N5CC6COCC6C5)CC4)nc3)c3c(C#N)cnn3c2)cn1 (stereo not drawn) [Example 123, 4-(6-(4-(hexahydro-1H-furo[3,4-c]pyrrole-5-carbonyl)piperazin-1-yl)pyridin-3-yl)-6-(1-methyl-1H-pyrazol-4-yl)pyrazolo[1,5-a]pyridine-3-carbonitrile]
